Reference: US6737383B1, “Herbicidal oxadiazolidines” (priority 1999, dated 2004)

Tests used:
soybean = assay: Test B pre/postemergence soybean; type: in vivo, Glycine max
In short: (§1)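 Response is a visual 0-to-10 score relative to untreated plants, where 0 means no effect and 10 means complete control, taken twelve to sixteen days after application. Treatments went onto soil at planting and onto foliage of 1- to 4-leaf plants, using a surfactant-containing non-phytotoxic solvent.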

wheat = assay: Test B pre/postemergence wheat; type: in vivo, Triticum aestivum
In short: as §1

purple nutsedge = assay: Test B pre/postemergence purple nutsedge; type: in vivo, Cyperus rotundus
In short: as §1

duck salad = assay: Test B flood test duck salad; type: in vivo, Heteranthera limosa; conditions: for Plant response rating, Ducksalad (0 to 10 scale, 0 is no effect, 10 is complete control) / Ducksalad plant response rating (0 to 10 scale, 0 is no effect, 10 is complete control): visual evaluation after twelve to sixteen days; for Ducksalad plant response rating (0 to 10 scale, 0 is no effect, 10 is complete control): under heading Pre-emergence
In short: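 Plants were grown to the 2-leaf stage before treatment with test chemical, then held in a greenhouse for twelve to sixteen days. Injury was visually rated against untreated controls on a 0–10 scale, where 0 is no effect and 10 is complete control.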

[1] = Postemergence, Rate 1000 g/ha, scale 0 to 10 (0 no effect, 10 complete control)
[2] = Preemergence, Rate 250 g/ha, scale of 0 to 10 where 0 is no effect and 10 is complete control
[3] = Preemergence, Rate 500 g/ha, scale of 0 to 10 where 0 is no effect and 10 is complete control
[4] = Rate 125 g/ha, Postemergence, scale of 0 to 10 where 0 is no effect and 10 is complete control
[5] = Rate 250 g/ha, Postemergence, scale of 0 to 10 where 0 is no effect and 10 is complete control
[6] = Rate 1000 g/ha, Preemergence, scale 0 to 10 (0 no effect, 10 complete control)
[7] = Rate 125 g/ha, Pre-emergence, flood test species, scale 0 to 10 where 0 is no effect and 10 is complete control
[8] = Rate 250 g/ha, Pre-emergence, flood-test species, scale 0 to 10, 0 is no effect, 10 is complete control
[9] = Rate 500 g/ha, Pre-emergence, flood test species, scale 0 to 10 (0 no effect, 10 complete control)
[10] = Postemergence, Rate 31 g/ha, visual rating, scale 0 to 10 (0 no effect, 10 complete control)
[11] = Preemergence, Rate 62 g/ha, scale of 0 to 10 where 0 is no effect and 10 is complete control
[12] = Rate 62 g/ha, Postemergence, scale 0 to 10, 0 no effect, 10 complete control
[13] = Postemergence, Rate 125 g/ha, scale 0 to 10, 0 is no effect, 10 is complete control
[14] = Postemergence, Rate 250 g/ha, scale 0 to 10, 0 is no effect, 10 is complete control
[15] = Preemergence, Rate 62 g/ha, scale 0 to 10 (0 no effect, 10 complete control)
[16] = Rate 62 g/ha, Postemergence, scale of 0 to 10 where 0 is no effect and 10 is complete control
[17] = Rate 500 g/ha, Postemergence, scale 0 to 10, 0 no effect, 10 complete control
[18] = Rate 62 g/ha, flood test species, Pre-emergence
[19] = Rate 125 g/ha, flood test species
[20] = Postemergence, Rate 500 g/ha, scale of 0 to 10 where 0 is no effect and 10 is complete control
[21] = Preemergence, Rate 125 g/ha, scale of 0 to 10 where 0 is no effect and 10 is complete control
[22] = Preemergence, Rate 250 g/ha, scale 0 to 10, 0 is no effect, 10 is complete control
[23] = Preemergence, Rate 500 g/ha, scale 0 to 10, 0 is no effect, 10 is complete control

CCOC(=O)C(C)N(C(=O)n1oc(=O)n(C(C)C)c1=O)c1ccc(F)cc1 (stereo not drawn) [Compound 302]
5: Soybean plant response rating (soybean; [1])
0: Soybean plant response rating (0 to 10 scale) (soybean; Preemergence, Rate 125 g/ha) | Soybean plant response rating (soybean; [2]) | Soybean plant response rating (soybean; [3]) | Plant response rating, Soybean (soybean; [6]) | Wheat plant response rating (0 to 10 scale) (wheat; Preemergence, Rate 125 g/ha) | Wheat plant response rating (wheat; [2]) | Wheat plant response rating (wheat; [3]) | Wheat plant response rating (wheat; [4]) | Plant response rating, Wheat (wheat; [5]) | Plant response rating, Wheat (wheat; [6]) | Nutsedge plant response rating (purple nutsedge; [1]) | Nutsedge plant response rating (0 to 10 scale) (purple nutsedge; Preemergence, Rate 125 g/ha) | Nutsedge plant response rating (purple nutsedge; [2]) | Nutsedge plant response rating (purple nutsedge; [3]) | Nutsedge plant response rating (purple nutsedge; [4]) | Plant response rating, Nutsedge (purple nutsedge; [5]) | Plant response rating, Nutsedge (purple nutsedge; [6]) | Ducksalad plant response rating (duck salad; Pre-emergence, Rate 1000 g/ha, scale 0 to 10 (0 no effect, 10 complete control)) | Ducksalad plant response rating (duck salad; [7]) | Ducksalad plant response rating (duck salad; [8]) | Ducksalad plant response rating (duck salad; [9])
3: Plant response rating, Soybean (soybean; [5])
2: Soybean plant response rating (soybean; [4])
1: Wheat plant response rating (wheat; [1])

COCC(C)N(C(=O)n1oc(=O)n(-c2ccccc2C)c1=O)c1ccc(F)cc1 (stereo not drawn) [Compound 324]
0: Soybean plant response rating (soybean; [10]) | Soybean plant response rating (soybean; [11]) | Soybean plant response rating (0 to 10 scale) (soybean; Preemergence, Rate 125 g/ha) | Soybean plant response rating (soybean; [2]) | Soybean plant response rating (soybean; [12]) | Wheat plant response rating (wheat; [10]) | Wheat plant response rating (wheat; [11]) | Wheat plant response rating (0 to 10 scale) (wheat; Preemergence, Rate 125 g/ha) | Wheat plant response rating (wheat; [2]) | Wheat plant response rating (wheat; [12]) | Wheat plant response rating (wheat; [4]) | Plant response rating, Wheat (wheat; [5]) | Nutsedge plant response rating (purple nutsedge; [10]) | Nutsedge plant response rating (purple nutsedge; [11]) | Nutsedge plant response rating (0 to 10 scale) (purple nutsedge; Preemergence, Rate 125 g/ha) | Nutsedge plant response rating (purple nutsedge; [2]) | Nutsedge plant response rating (purple nutsedge; [12]) | Nutsedge plant response rating (purple nutsedge; [4]) | Plant response rating, Nutsedge (purple nutsedge; [5]) | Ducksalad plant response rating (duck salad; Rate 31 g/ha, Pre-emergence section (flood test species), scale 0 to 10) | Ducksalad plant response rating (duck salad; Rate 62 g/ha, headed Pre-emergence (flood test species), scale 0 to 10 (0 no effect, 10 complete control)) | Ducksalad plant response rating (duck salad; [7]) | Ducksalad plant response rating (duck salad; [8])
1: Soybean plant response rating (soybean; [4]) | Plant response rating, Soybean (soybean; [5])

CC(C)N(C(=O)n1oc(=O)n(N2CCOCC2)c1=O)c1ccc(F)cc1F [Compound 384]
0: Plant response rating, Soybean (soybean; [15]) | Soybean plant response rating (0 to 10 scale) (soybean; Preemergence, Rate 125 g/ha) | Soybean plant response rating (soybean; [2]) | Plant response rating, Wheat (wheat; [13]) | Plant response rating, Wheat (wheat; [15]) | Wheat plant response rating (0 to 10 scale) (wheat; Preemergence, Rate 125 g/ha) | Wheat plant response rating (wheat; [16]) | Plant response rating, Nutsedge (purple nutsedge; [13]) | Plant response rating, Nutsedge (purple nutsedge; [14]) | Plant response rating, Nutsedge (purple nutsedge; [15]) | Nutsedge plant response rating (0 to 10 scale) (purple nutsedge; Preemergence, Rate 125 g/ha) | Nutsedge plant response rating (purple nutsedge; [2]) | Nutsedge plant response rating (purple nutsedge; [3]) | Nutsedge plant response rating (purple nutsedge; [16]) | Plant response rating, Nutsedge (purple nutsedge; [17]) | Plant response rating, Ducksalad (0 to 10 scale, 0 is no effect, 10 is complete control) (duck salad; [18]) | Ducksalad plant response rating (0 to 10 scale, 0 is no effect, 10 is complete control) (duck salad; [19]) | Ducksalad plant response rating (duck salad; [8]) | Ducksalad plant response rating (duck salad; [9])
2: Plant response rating, Soybean (soybean; [13]) | Plant response rating, Wheat (wheat; [14]) | Wheat plant response rating (wheat; [2])
1: Soybean plant response rating (soybean; [16])
3: Plant response rating, Soybean (soybean; [14]) | Soybean plant response rating (soybean; [3]) | Plant response rating, Soybean (soybean; [17]) | Wheat plant response rating (wheat; [3]) | Plant response rating, Wheat (wheat; [17])

CC(C)N(C(=O)n1oc(=O)n(C(CF)CF)c1=O)c1ccc(F)cc1 [Compound 390]
8: Wheat plant response rating (wheat; [2])
4: Plant response rating, Wheat (wheat; [21])
7: Wheat plant response rating (wheat; [20])
2: Soybean plant response rating (soybean; [2]) | Soybean plant response rating (soybean; [16]) | Nutsedge plant response rating (purple nutsedge; [3])
5: Soybean plant response rating (soybean; [20])
3: Plant response rating, Soybean (soybean; [14]) | Soybean plant response rating (soybean; [3]) | Plant response rating, Wheat (wheat; [14]) | Plant response rating, Nutsedge (purple nutsedge; [14]) | Ducksalad plant response rating (duck salad; [9])
9: Wheat plant response rating (wheat; [3])
0: Plant response rating, Soybean (soybean; [15]) | Plant response rating, Soybean (soybean; [21]) | Plant response rating, Wheat (wheat; [15]) | Wheat plant response rating (wheat; [16]) | Plant response rating, Nutsedge (purple nutsedge; [15]) | Plant response rating, Nutsedge (purple nutsedge; [21]) | Nutsedge plant response rating (purple nutsedge; [2]) | Nutsedge plant response rating (purple nutsedge; [16]) | Plant response rating, Ducksalad (0 to 10 scale, 0 is no effect, 10 is complete control) (duck salad; [18]) | Ducksalad plant response rating (0 to 10 scale, 0 is no effect, 10 is complete control) (duck salad; [19]) | Ducksalad plant response rating (duck salad; [8])

CC(C)N(C(=O)n1oc(=O)n(CCC(F)(F)F)c1=O)c1ccc(F)cc1 [Compound 397]
6: Soybean plant response rating (soybean; [20])
4: Wheat plant response rating (wheat; [20])
0: Plant response rating, Soybean (soybean; [15]) | Plant response rating, Soybean (soybean; [21]) | Soybean plant response rating (soybean; [22]) | Soybean plant response rating (soybean; [23]) | Plant response rating, Wheat (wheat; [15]) | Plant response rating, Wheat (wheat; [21]) | Wheat plant response rating (wheat; [16]) | Plant response rating, Nutsedge (purple nutsedge; [14]) | Nutsedge plant response rating (purple nutsedge; [20]) | Plant response rating, Nutsedge (purple nutsedge; [15]) | Plant response rating, Nutsedge (purple nutsedge; [21]) | Nutsedge plant response rating (purple nutsedge; [22]) | Nutsedge plant response rating (purple nutsedge; [23]) | Nutsedge plant response rating (purple nutsedge; [16]) | Plant response rating, Ducksalad (duck salad; Postemergence (flood test), Rate 125 g/ha, scale 0 to 10, 0 is no effect, 10 is complete control) | Ducksalad plant response rating (duck salad; Postemergence section (flood test species), Rate 500 g/ha, scale of 0 to 10 where 0 is no effect and 10 is complete control) | Ducksalad plant response rating (duck salad; Rate 62 g/ha, Postemergence (flood test species), scale of 0 to 10 where 0 is no effect and 10 is complete control) | Plant response rating, Ducksalad (duck salad; flood test species, listed under Postemergence, Rate 250 g/ha, scale 0 to 10, 0 is no effect, 10 is complete control)
3: Soybean plant response rating (soybean; [16]) | Wheat plant response rating (wheat; [23])
5: Plant response rating, Soybean (soybean; [14])
2: Wheat plant response rating (wheat; [22])

Cc1nc(Cl)sc1C(C)n1c(=O)on(C(=O)N(c2ccc(F)cc2)C(C)C)c1=O (stereo not drawn) [Compound 401]
3: Soybean plant response rating (soybean; [23])
1: Plant response rating, Soybean (soybean; [14]) | Soybean plant response rating (soybean; [20])
0: Plant response rating, Soybean (soybean; [15]) | Plant response rating, Soybean (soybean; [21]) | Soybean plant response rating (soybean; [22]) | Soybean plant response rating (soybean; [16]) | Wheat plant response rating (wheat; [20]) | Plant response rating, Wheat (wheat; [15]) | Plant response rating, Wheat (wheat; [21]) | Wheat plant response rating (wheat; [22]) | Wheat plant response rating (wheat; [23]) | Wheat plant response rating (wheat; [16]) | Plant response rating, Nutsedge (purple nutsedge; [14]) | Nutsedge plant response rating (purple nutsedge; [20]) | Plant response rating, Nutsedge (purple nutsedge; [15]) | Plant response rating, Nutsedge (purple nutsedge; [21]) | Nutsedge plant response rating (purple nutsedge; [22]) | Nutsedge plant response rating (purple nutsedge; [23]) | Nutsedge plant response rating (purple nutsedge; [16]) | Plant response rating, Ducksalad (0 to 10 scale, 0 is no effect, 10 is complete control) (duck salad; [18]) | Ducksalad plant response rating (0 to 10 scale, 0 is no effect, 10 is complete control) (duck salad; [19]) | Ducksalad plant response rating (duck salad; [8]) | Ducksalad plant response rating (duck salad; [9])

CC1CC1Cn1c(=O)on(C(=O)N(c2ccc(F)cc2)C(C)C)c1=O (stereo not drawn) [Compound 402]
8: Soybean plant response rating (soybean; [20])
4: Soybean plant response rating (soybean; [16])
0: Plant response rating, Soybean (soybean; [15]) | Plant response rating, Soybean (soybean; [21]) | Soybean plant response rating (soybean; [22]) | Wheat plant response rating (wheat; [20]) | Plant response rating, Wheat (wheat; [15]) | Plant response rating, Wheat (wheat; [21]) | Wheat plant response rating (wheat; [16]) | Plant response rating, Nutsedge (purple nutsedge; [14]) | Nutsedge plant response rating (purple nutsedge; [20]) | Plant response rating, Nutsedge (purple nutsedge; [15]) | Plant response rating, Nutsedge (purple nutsedge; [21]) | Nutsedge plant response rating (purple nutsedge; [22]) | Nutsedge plant response rating (purple nutsedge; [23]) | Nutsedge plant response rating (purple nutsedge; [16]) | Plant response rating, Ducksalad (0 to 10 scale, 0 is no effect, 10 is complete control) (duck salad; [18]) | Ducksalad plant response rating (0 to 10 scale, 0 is no effect, 10 is complete control) (duck salad; [19]) | Ducksalad plant response rating (duck salad; [8]) | Ducksalad plant response rating (duck salad; [9])
3: Wheat plant response rating (wheat; [22])
1: Soybean plant response rating (soybean; [23])
6: Plant response rating, Soybean (soybean; [14]) | Wheat plant response rating (wheat; [23])
